Test results as given in PMC10180520, “Phytochemical Analysis and Profiling of Antioxidants and Anticancer Compounds from Tephrosia purpurea (L.) subsp. apollinea Family Fabaceae” (Molecules, 2023).
In brackets after ≈: the same amount, converted by molar mass.

Experiments:
[1] = ABTS radical scavenging assay; assay type: biochemical
Description: Distilled water was used to bring up a 50-mL volumetric flask to mark after dissolving 192 mg of 2,2′-azino-bis(3-ethylbenzothiazoline-6-sulfonic acid) (ABTS) in a small volume of water and transferring it to the flask, followed by addition of 1 mL of this solution to 17 μL 0.14 M K2S2O8, and incubation in darkness for 24 h. To prepare the final ABTS dilution for the T. purpurea subsp. apollinea extract, 1 mL of reaction mixture was added to 49 mL of methanol. Then, 0.190 mL of newly made ABTS solution was mixed with 0.010 mL of plant extract in a 96-well plate and kept in the dark for 30 min. Thereafter, a decrease in ABTS OD was read at 734 nm in a FluoStar Omega microplate reader. Trolox was used as an antioxidant standard. All the values were measured in triplicate.

[2] = test system: normal human fetal lung fibroblast (WI38); assay: MTT assay, normal human fetal lung fibroblast (WI38); assay type: cell-based; details: WI-38, WI38 normal cells, 24 h
Description: (§1) Breast cancer cell lines (MCF7), osteosarcoma (MG63), breast ductal carcinoma (T47D), leukemia (U937), as well as HeLa, PC3, and healthy pulmonary fibroblast were supplied by the tissue culture laboratory at Vacsera, Egypt. The culturing procedure was maintained sterile, utilizing a laminar airflow cabinet. The cells were cultured in Roswell Park Memorial Institute medium (RPMI 1640). The medium was provided with antibiotics (streptomycin and penicillin) as well as antifungal agents (amphotericin B) and L-glutamine. It was also supplemented with 10% heat-inactivated fetal bovine serum.
(§2) Cell viability was measured using a 3-(4,5-dimethylthiazol-2-yl)-2,5-diphenyl-2H-tetrazolium bromide (MTT) assay. The principle of the MTT assay is that through mitochondrial reduction, purple-colored crystals are produced from the yellowish MTT [80]. […]
(§3) Using a growth medium, serial dilutions of the dimethyl sulfoxide (DMSO)-solubilized extract were produced at concentrations of 31.25, 62.5, 125, 250, 500, and 1000 µg/mL [80]. […] A microplate reader was used to measure the optical density of the formazan solution at 560 nm, with values corrected using a background reference λ of 620 nm. […]
(§4) The IC50 profiles of methanol extract of T. purpurea subsp. apollinea and a positive control for cancer and healthy cell lines were determined with GraphPad Prism version 7 (GraphPad Software Inc., San Diego, CA, USA). […]

osteosarcoma (MG63) = assay: MTT assay, osteosarcoma (MG63); assay type: cell-based
Description: as §1, §2, §3, §4

MCF7 = assay: Light microscopy of treated cells, MCF7; assay type: cell-based; details: MCF7, 250 µg/mL (Figure 8)
Excerpt: (§5) Morphologies of cells treated with the various methanol T. purpurea subsp. apollinea extract concentrations were investigated under light microscopy at 10× objective lens, total magnification = 100×.

PC3 = assay: Light microscopy of treated cells, PC3; assay type: cell-based; details: PC3, 250 µg/mL (Figure 8)
Excerpt: as §5

leukemia (U937) = assay: MTT assay, leukemia (U937); assay type: cell-based
Description: as §1, §2, §3, §4

MG63 = assay: Light microscopy of treated cells, MG63; assay type: cell-based; details: MG63, 250 µg/mL (Figure 8)
Excerpt: as §5

T47D = assay: Light microscopy of treated cells, T47D; assay type: cell-based; details: 250 µg/mL (Figure 8)
Excerpt: as §5

breast cancer (MCF7) = assay: MTT assay, breast cancer (MCF7); assay type: cell-based
Description: as §1, §2, §3, §4

HeLa = assay: Light microscopy of treated cells, HeLa; assay type: cell-based; details: 250 µg/mL (Figure 8)
Excerpt: as §5

prostate cancer (PC3) = assay: MTT assay, prostate cancer (PC3); assay type: cell-based
Description: as §1, §2, §3, §4

cervical cancer (HeLa) = assay: MTT assay, cervical cancer (HeLa); assay type: cell-based
Description: as §1, §2, §3, §4

[3] = test system: breast ductal carcinoma (T47D); assay: MTT assay, breast ductal carcinoma (T47D); assay type: cell-based
Description: as §1, §2, §3, §4

[4] = DPPH radical scavenging assay; assay type: biochemical
Description: Each methanolic extract concentration (1 mL) was added to 3 mL of 0.1 mM DPPH solubilized in methanol, followed by shaking and placing it into a dark chamber for 30 min. When DPPH reacts with an H-donating antioxidant, it is scavenged, thereby resulting in a decrease in absorbance. The optical density of each concentration was measured at 517 nm in a UV-Vis spectrophotometer. Ascorbic acid was used as an antioxidant standard. All the values were measured in triplicate.

In the case of `Cc1c(C)c2c(c(C)c1O)CCC(C)(C(=O)O)O2` (centres unmarked) [Trolox], the “ABTS Scavenging%” value ([1]; Conc. 0.6 µg/mL) is reported as 9.9 ± 0.3%, the “ABTS Scavenging%” value ([1]; Conc. 1.3 µg/mL) is reported as 18.6 ± 0.4% and the “ABTS Scavenging%” value ([1]; Conc. 3.8 µg/mL) is reported as 49.6 ± 2.6%. The “ABTS Scavenging%” value ([1]; Conc. 6.2 µg/mL) was 83.6 ± 1.9%, the “ABTS Scavenging%” value ([1]; Conc. 8.8 µg/mL) was 92.6 ± 0.2% and the “IC50 of ABTS radical scavenging” value ([1]; mean ± standard deviation) was “^a IC50 = 2.9 ± 0.1 μg/mL”.
For `COc1cccc2c1C(=O)c1c(O)c3c(c(O)c1C2=O)C[C@@](O)(C(=O)CO)C[C@@H]3O[C@H]1C[C@H](N)[C@H](O)[C@H](C)O1` [Doxorubicin], the IC50 [2] was 20.1 ± 0.1 µg/mL (≈ 37 µM), the IC50 (osteosarcoma (MG63); Homo sapiens, MG-63, MG63, MTT, 24 h) was 19 ± 0.3 µg/mL (≈ 35 µM) and the “SI (selectivity index)” value (osteosarcoma (MG63); IC50 for WI38 / IC50 for MG63) was 1.0. The cell morphology (MCF7) was “rounded and shrunk cells”, the cell morphology (PC3) was “rounded and shrunk cells” and the IC50 (leukemia (U937); Homo sapiens, U-937, U937, MTT, 24 h) was 41.7 ± 0.9 µg/mL (≈ 76.7 µM). The “SI (selectivity index)” value (leukemia (U937); IC50 for WI38 / IC50 for U937) was 0.4, the cell morphology (MG63) was “rounded and shrunk cells” and the cell morphology (T47D) was “rounded and shrunk cells”. For the same compound, the “SI (selectivity index)” value (breast cancer (MCF7); IC50 for WI38 / IC50 for MCF7) was 0.5, the IC50 (breast cancer (MCF7); MCF7, MTT, 24 h) was 37.4 ± 0.1 µg/mL (≈ 68.8 µM) and the cell morphology (HeLa) was “rounded and shrunk cells”. For the same compound, the “SI (selectivity index)” value (prostate cancer (PC3); IC50 for WI38 / IC50 for PC3) was 0.4, the IC50 (prostate cancer (PC3); PC3, MTT, 24 h) was 46.3 ± 0.2 µg/mL (≈ 85.2 µM) and the IC50 (cervical cancer (HeLa); Homo sapiens, HeLa, MTT, 24 h) was 41.9 ± 0.1 µg/mL (≈ 77.1 µM). For the same compound, the “SI (selectivity index)” value (cervical cancer (HeLa); IC50 for WI38 / IC50 for HeLa) was 0.4, the IC50 ([3]; Homo sapiens, T47D, MTT, 24 h) was 7 ± 0.1 µg/mL (≈ 12.9 µM) and the “SI (selectivity index)” value ([3]; IC50 for WI38 / IC50 for T47D) was 2.8.
With `O=C1O[C@H]([C@@H](O)CO)C(O)=C1O` [Ascorbic Acid, Ascorbic acid] the “DPPH Scavenging%” value ([4]; Conc. 1.95 µg/mL) was 41.8 ± 0.5%, the “DPPH Scavenging%” value ([4]; Conc. 3.9 µg/mL) was 45.9 ± 0.1% and the “DPPH Scavenging%” value ([4]; Conc. 7.8125 µg/mL) was 56.2 ± 0.2%. The “DPPH Scavenging%” value ([4]; Conc. 15.625 µg/mL) was 64.2 ± 0.3%, the “DPPH Scavenging%” value ([4]; Conc. 31.25 µg/mL) was 71.2 ± 0.2% and the “DPPH Scavenging%” value ([4]; Conc. 62.5 µg/mL) was 77.9 ± 0.3%. The “DPPH Scavenging%” value ([4]; Conc. 125 µg/mL) was 86.4 ± 0.3%, the “DPPH Scavenging%” value ([4]; Conc. 250 µg/mL) was 92.7 ± 0.2% and the “DPPH Scavenging%” value ([4]; Conc. 500 µg/mL) was 94.5 ± 0.2%. The “DPPH Scavenging%” value ([4]; Conc. 1000 µg/mL) was 97.1 ± 0.1% and the “IC50 of DPPH radical scavenging” value ([4]; mean ± standard deviation) was “^a IC50 = 4.8 ± 0.1 μg/mL”.
